Measurements reported in patent publication US6486206B1, “Mechanical and pharmacologic therapies to treat cardiac arrest” (CPRx Inc., priority 1997, dated 2002).

Test system: porcine model of ventricular fibrillation
Conditions: pigs, standard CPR, 2 minutes after drug administration
Method: Vital organ blood flow was also assessed after four minutes of ventricular fibrulation, four minutes of standard CPR, and two minutes after drug administration.

In the case of `CNC[C@H](O)c1ccc(O)c(O)c1` [epinephrine], the “endocardial:epicardial ratio (mean±SEM)” value is reported as 0.81±0.21.
